Experimental data: US7838527B2, “Methods of treating cancer and related methods” (Novartis Vaccines and Diagnostics, Inc., priority 2002, dated 2010)
Where two headings read alike, the source gives them in different places.

Tests used:
[1] = tested on: PC3 human prostate tumor
[2] = Plasma pharmacokinetics in KM12L4a tumor-bearing mice; type: in vivo; details: 300 mg/kg/day p.o.; Day 18; from 3 concentration-time pairs
[3] = Metabolite profile in monkey plasma, multiple oral dose study; type: in vivo; details: for level in plasma: compound 1 5 mg/kg BID oral (10 mg/kg/day), Day 1, metabolite estimated by UV
[4] = Compound 1 and metabolite levels in pooled rat plasma, 2 week toxicology study; type: in vivo; details: metabolites estimated by UV; for concentration at 0 h / concentration at 24 h: rat, plasma, po, read-out: Level in Rat Plasma
[5] = 30 mg/kg, compound 1 30 mg/kg PO once a day, Day 1
[6] = 100 mg/kg, compound 1 100 mg/kg PO once a day, Day 1
[7] = 100 mg/kg, compound 1 100 mg/kg PO once a day, Day 14

| Compound | % TGI vs. vehicle ([1]; 100 mpk q 2 days) | % TGI vs. vehicle ([1]; 100 mpk q 3 days) | % TGI vs. vehicle ([1]; 100 mpk q 4 days) | AUC [2] | level in plasma ([3]; pooled 0 hr) | level in plasma ([3]; pooled 1, 2 hr) | level in plasma ([3]; pooled 4, 8 hr) | level in plasma ([3]; pooled 12, 13, 14, 16, 20, 24 hr) | Level in Rat Plasma ([4]; compound 1 30 mg/kg PO once a day, Day 1, 1-2 hr) | Level in Rat Plasma ([4]; compound 1 30 mg/kg PO once a day, Day 1, 4-8 hr) | Level in Rat Plasma ([4]; compound 1 100 mg/kg PO once a day, Day 14, 1-2 hr) | Level in Rat Plasma ([4]; compound 1 100 mg/kg PO once a day, Day 14, 4-8 hr) | concentration at 0 h [4, 5] | concentration at 0 h [4, 6] | concentration at 24 h [4, 6] | concentration at 0 h [4, 7] | concentration at 24 h [4, 7] | detection of metabolite in plasma ([3]; monkey, compound 1 5 mg/kg BID oral, day 1 and 14 samples) |
| --- | --- | --- | --- | --- | --- | --- | --- | --- | --- | --- | --- | --- | --- | --- | --- | --- | --- | --- |
| CN1CCN(c2ccc3nc(-c4c(N)c5c(F)cccc5[nH]c4=O)[nH]c3c2)CC1 [Compound 1] | 75% | 68% | 66% | 58400 ng·h/mL | – | – | – | – | – | – | – | – | – | – | – | – | – | – |
| Nc1c(-c2nc3ccc(N4CCNCC4)cc3[nH]2)c(=O)[nH]c2cccc(F)c12 [Compound 3, 4-amino-5-fluoro-3-[6-(piperazin-1-yl)-1H-benzimidazol-2-yl]quinolin-2(1H)-one] | – | – | – | – | 0 ng/mL | 8.5 ng/mL | 31 ng/mL | 10 ng/mL | 14 ng/mL | 48 ng/mL | 17 ng/mL | 19 ng/mL | 0 ng/mL | 0 ng/mL | 83 ng/mL | 15 ng/mL | 10 ng/mL | – |
| C[N+]1([O-])CCN(c2ccc3nc(-c4c(N)c5c(F)cccc5[nH]c4=O)[nH]c3c2)CC1 [Compound 2, 4-amino-5-fluoro-3-[6-(4-methyl-4-oxidopiperazin-1-yl)-1H-benzimidazol-2-yl]quinolin-2(1H)-one] | – | – | – | – | – | – | – | – | – | – | – | – | 0 ng/mL | 0 ng/mL | 137 ng/mL | 67 ng/mL | 102 ng/mL | not detected |
